Assay results reported in ChEMBL document CHEMBL5120942, “Designing a Small Fluorescent Inhibitor to Investigate Soluble Epoxide Hydrolase Engagement in Living Cells” (ACS Med Chem Lett, 2022).
Calls of active or inactive are those of the source. No cut-off for these calls is given here.

Key:
[1] = target: T1, Bifunctional epoxide hydrolase 2 (Homo sapiens, UniProt P34913); assay: Displacement of (1R,3S)-N-(4-methoxy-2-(trifluoromethyl)benzyl)-3-((7-nitrobenzo[c][1,2,5]-oxadiazol-4-yl)amino)cyclohexane-1-carboxamide from NanoLuc-fused human sEH ( 1 to 555 residues) expressed in HEK293T cells incubated for 5 hrs by NanoBRET analysis; type: cell-based; conditions: read-out: Ki(app)
T1 sequence (P34913 whole entry): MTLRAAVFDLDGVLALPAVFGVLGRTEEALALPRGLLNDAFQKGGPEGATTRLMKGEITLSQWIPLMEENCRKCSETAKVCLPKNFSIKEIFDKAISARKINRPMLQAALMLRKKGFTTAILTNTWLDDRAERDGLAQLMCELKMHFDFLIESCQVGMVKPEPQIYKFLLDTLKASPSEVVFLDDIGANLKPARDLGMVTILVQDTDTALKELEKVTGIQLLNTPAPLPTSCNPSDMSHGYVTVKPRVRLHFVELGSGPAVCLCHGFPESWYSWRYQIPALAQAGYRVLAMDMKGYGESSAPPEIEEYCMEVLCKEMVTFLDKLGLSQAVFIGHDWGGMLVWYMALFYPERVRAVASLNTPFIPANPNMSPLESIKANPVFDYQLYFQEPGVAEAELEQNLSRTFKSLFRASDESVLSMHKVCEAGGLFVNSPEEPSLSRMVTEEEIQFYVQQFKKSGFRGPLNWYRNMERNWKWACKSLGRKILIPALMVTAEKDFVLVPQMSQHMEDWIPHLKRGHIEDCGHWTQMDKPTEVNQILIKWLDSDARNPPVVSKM

[2] = target: T1, Bifunctional epoxide hydrolase 2; assay: (§1) Inhibition of C-terminal domain of human sEH-H assessed as reduction in fluorescent naphthalene aldehyde formation using PHOME as substrate preincubated with enzyme for 30 mins followed by substrate addition and measured every minute for 45 mins by fluorescence based analysis
[3] = target: T2, Bifunctional epoxide hydrolase 2 (Homo sapiens) (UniProt P34913); assay: as §1; conditions: time 75.0 min, DDE = dose-dependent effect
T2 sequence (whole entry): T1 sequence (P34913 whole entry)

[4] = target: T2, Bifunctional epoxide hydrolase 2 (Homo sapiens); assay: Binding affinity to human full length sEH (1 to 555 residues) expressed in doxycycline-induced HEK293 cells at 300 nM incubated for 5 hrs by Hoechst 33342 staining based fluorescence microscopy; type: cell-based
[5] = target: T3, Bifunctional epoxide hydrolase 2 (Mus musculus, UniProt P34914); assay: (§2) Inhibition of C-terminal domain of mouse sEH-H assessed as reduction in fluorescent naphthalene aldehyde formation using PHOME as substrate preincubated with enzyme for 30 mins followed by substrate addition and measured every minute for 45 mins by fluorescence based analysis
T3 sequence (P34914 whole entry): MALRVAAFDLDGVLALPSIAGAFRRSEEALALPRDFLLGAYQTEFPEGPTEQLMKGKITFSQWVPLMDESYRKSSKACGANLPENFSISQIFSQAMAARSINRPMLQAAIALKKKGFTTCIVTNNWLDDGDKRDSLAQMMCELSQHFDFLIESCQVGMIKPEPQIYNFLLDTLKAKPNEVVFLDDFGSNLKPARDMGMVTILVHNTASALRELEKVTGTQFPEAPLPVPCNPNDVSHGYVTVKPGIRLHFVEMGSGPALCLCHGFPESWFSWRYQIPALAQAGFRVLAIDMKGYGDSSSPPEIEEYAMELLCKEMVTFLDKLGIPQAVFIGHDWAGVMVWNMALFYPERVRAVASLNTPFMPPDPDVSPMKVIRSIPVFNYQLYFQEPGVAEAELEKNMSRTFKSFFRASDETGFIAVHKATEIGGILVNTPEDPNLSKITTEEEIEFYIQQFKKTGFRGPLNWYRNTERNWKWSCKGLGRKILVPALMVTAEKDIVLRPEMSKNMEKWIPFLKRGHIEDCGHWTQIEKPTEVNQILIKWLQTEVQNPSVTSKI

[6] = target: T4, Bifunctional epoxide hydrolase 2 (Mus musculus) (UniProt P34914); assay: as §2; conditions: time 75.0 min, DDE = dose-dependent effect
T4 sequence (whole entry): T3 sequence (P34914 whole entry)

[7] = target: T4, Bifunctional epoxide hydrolase 2 (Mus musculus); assay: Binding affinity to sEH in C57BL/6J mouse astrocytes at 10 uM incubated for 5 hrs by DAPI staining based immunocytochemistry; type: cell-based; conditions: Astrocyte
[8] = target: T2, Bifunctional epoxide hydrolase 2 (Homo sapiens); assay: Binding affinity to C-terminal domain of human sEH-H at 20 nM incubated for 1 hr by fluorescence polarization assay
[9] = target: T1, Bifunctional epoxide hydrolase 2; assay: Binding affinity to NanoLuc-fused human sEH ( 1 to 555 residues) expressed in HEK293T cells incubated for 5 hrs by NanoBRET analysis; type: cell-based
[10] = target: T1, Bifunctional epoxide hydrolase 2; assay: Inhibition of human sEH BacMam transduced HEK293 cells assessed as reduction in 14,15-DHET formation using 14,15-EET as substrate preincubated for 30 mins followed by susbtrate addition and measured after 90 mins by fluorescence polarization assay; type: cell-based

| Structure (SMILES) | Ki [1] | IC50 [2] | inhibition [3] | Activity [4] | IC50 [5] | inhibition [6] | Activity [7] | Activity [8] | Kd [9] | IC50 [10] |
| --- | --- | --- | --- | --- | --- | --- | --- | --- | --- | --- |
| CNc1nc(C)nc(N[C@H]2CCC[C@@H](C(=O)NCc3ccc(C#N)cc3C(F)(F)F)C2)n1 [GSK2256294] | 24 nM |  |  |  |  |  |  |  |  |  |
| COc1ccc(CNC(=O)[C@@H]2CCC[C@H](Nc3ccc([N+](=O)[O-])c4nonc34)C2)c(C(F)(F)F)c1 |  | 1.43 nM | Dde | Active | 7.71 nM | Dde | Active | Active | 6 nM |  |
| O=C(NCc1ccc(NS(=O)(=O)C2CC2)cc1C(F)(F)F)c1ccc2[nH]ccc2c1 | 583 nM | 29.4 nM |  |  |  |  |  |  |  |  |
| O=C(O)CCCCCCCCCCNC(=O)NC12CC3CC(CC(C3)C1)C2 | 16 nM | 2.6 nM |  |  |  |  |  |  |  | 34 nM |
